Experimental data reported in patent US20110223167A1, “COMBINATION THERAPY USING RECEPTOR TYROSINE KINASE INHIBITORS AND ANGIOGENESIS INHIBITORS” (priority 2001, published 2011).

Tested on: progressive squamous cell carcinoma of the superior maxilla
Settings: for effect on tumor growth: cisplatin (75 mg/m^2) and docetaxel (75 mg/m^2) together, three administrations, from August 1999; for tumor response: weekly: 1200 mg/m^2 Cilengitide Monday and Friday, 200 mg EMD 72000 followed by 1000 mg/m^2 gemcitabine Thursday, from November 2000
[1] = EMD 121974 (600 mg/m^2) combined with gemcitabine (1000 mg/m^2), since mid of January 2000

Experimental: Case History and Clinical Findings/Status at the Start of the Compassionate use Treatment:
A biopsy of the suspected large tumor in the upper maxilla was performed. […] On Aug. […] Due to the unfavourable histologic classification the patient received a post-operative radiation therapy up to 50.4 Gray from September to October 1997.
In July 1998 progression of disease was suspected which led to hospitalization. […] After consultation of radiotherapists another radiotherapy was recommended which started in August 1998. The patient was treated simultaneously with gemcitabine (100 mg) as a radiosensitizer. […] Following the combined radio-chemotherapy the patient received a therapy with 1000 mg gemcitabine (5 circles of 16 administrations).
In March 1999 again progression of the carcinoma occurred which led to additional radiation therapy and palliative resection of the tumor.
Diffuse bleedings out of the large tumor mass required frequent transfusions of erythrocyte concentrates.
Course of Compassionate Use Treatment with Anti-Angiogenic Agent/Chemotherapeutic Agents:
The patient was treated with EMD 121974 and Gemzar from Nov. 17, 1999 until Mar. 30, 2000. From Jun. 04, 2000 until Apr. […] Chemotherapy-treatment was stopped because of haematotoxicity and Cilengitide treatment was continued alone.
The patient's condition worsened after several weeks and the patient was treated with an increased dose of 1200 mg/m^2 EMD 121974 twice weekly.
Treatment with h425+Cilengitide+Chemotherapeutics:
EMD 72000 was first given in November 2000 in a dosage of 200 mg (infusion over half an hour) after premedication with dexamethasone/dimetindenmaleate (Fenistil) and ranitidin (Zantic). One week later the patient received additionally gemcitabine (1000 mg/m^2). The weekly treatment schedule was: Monday: 1200 mg/m^2 Cilengitide (one hour is infusion), Thursday 200 mg EMD 72000 (half an hour infusion) followed by 1000 mg/m^2 gemcitabine (one hour infusion), Friday 1200 mg/m^2 Cilengitide (one hour infusion). […] The tumor masses were surgically removed at several occasions.

Molecule: CC(=O)O[C@@]12CO[C@@H]1C[C@H](O)[C@@]1(C)C(=O)[C@H](O)C3=C(C)[C@@H](OC(=O)[C@H](O)[C@@H](NC(=O)OC(C)(C)C)c4ccccc4)C[C@@](O)([C@@H](OC(=O)c4ccccc4)[C@H]21)C3(C)C [docetaxel, reference compound]
- effect on tumor growth: lack of effect on tumor growth

Molecule: CC(C)[C@H]1C(=O)N[C@@H](CCCN=C(N)N)C(=O)NCC(=O)N[C@@H](CC(=O)O)C(=O)N[C@H](Cc2ccccc2)C(=O)N1C [EMD 121974, Cyclo-(Arg-Gly-Asp-DPhe-NMeVal)]
- surface of the tumor (EMD 121974 (600 mg/m^2) combined with gemcitabine (1000 mg/m^2)): signs of granulation and wound healing
- tumor bleeding (EMD 121974 (600 mg/m^2) combined with gemcitabine (1000 mg/m^2), no need for further transfusions): Bleeding stopped
- hearing [1]: able to hear again on their right ear
- increase of mouth opening compared with December 1999 [1]: 30%
- disease status (EMD 121974 alone, 600 mg/m^2 twice a week, April to June 2000): stable disease
- tumor response: crater-like disintegration of the tumor mass

Molecule: Nc1ccn([C@@H]2O[C@H](CO)[C@@H](O)C2(F)F)c(=O)n1 [gemcitabine, reference compound]
- tumor response (clinical remission) (radiotherapy with simultaneous gemcitabine (100 mg) as radiosensitizer, 6 week-therapy from August 1998): complete clinical remission

Molecule: N.N.[Cl][Pt][Cl] [cisplatin, reference compound]
- effect on tumor growth: lack of effect on tumor growth

Molecule: EMD 72000: Monoclonal human antibody 425 (h425), Merck KgaA, Germany; anti-EGFR antibody
- tumor response: crater-like disintegration of the tumor mass
